According to ChEMBL document CHEMBL4651402, “Screening of ~5500 FDA-approved drugs and clinical candidates for anti-SARS-CoV-2 activity” (2021):
Counter-ions that a name gives are not always drawn.

System: SARS-CoV-2
Assay: microbe, parasite or virus in culture
Conditions: Severe acute respiratory syndrome coronavirus 2, Vero C1008, 48 h

SMILES | IC50 [µM] | IC50 (read-out: pIC50 (converted)) [µM]
CCN(CC)CC/C(=N\OC(=O)Nc1ccc(OC)cc1)c1ccccc1 | > 20 | > 20
CCOc1cc2c(c(F)c1OCC)C(=N)N(CC(=O)c1cc(N3CCOCC3)c(OC)c(C(C)(C)C)c1)C2 [ATOPAXAR] | > 20 | > 20
C[C@@H](NCCCCc1ccccc1)[C@@H](O)c1ccc2c(c1)CCS2 | > 20 | > 20
CC(C)CN(C[C@@H](OP(=O)(O)O)[C@H](Cc1ccccc1)NC(=O)O[C@H]1CCOC1)S(=O)(=O)c1ccc(N)cc1 [FOSAMPRENAVIR] | > 20 | > 20
O=C(Cn1ccnc1)c1ccc2ccccc2c1 [NAFIMIDONE] | > 20 | > 20
CCC(=O)Oc1ccc2c(c1)CCC1C2CCC2(C)C(OC(=O)CC)CCC12 (stereo unspecified) | > 20 | > 20
C=C1[C@@H](O)C2/C=C\C[C@H](C)C(=O)[C@](C)(O)/C=C/[C@@H](OC(C)=O)[C@]23C(=O)N[C@H](Cc2ccccc2)[C@@H]3[C@@H]1C (stereo partly specified) | > 20 | > 20
CCCCC(=O)N(Cc1ccc(-c2ccccc2-c2nnn[nH]2)cc1)[C@H](C(=O)O)C(C)C | > 20 | > 20
OC1(c2ccc(Cl)cc2)c2ccccc2C2=NCCN21 (stereo unspecified) [MAZINDOL] | > 20 | > 20
CO[C@H]1C=C2CCN(C)[C@H]2C2c3cc4c(cc3C(=O)O[C@@H]21)OCO4 (stereo partly specified) | > 20 | > 20
CC(C)C(N)=O [ISOBUTYRAMIDE] | > 20 | > 20
CC(C)[N+](C)(CCOC(=O)C1c2ccccc2Oc2ccccc21)C(C)C [PROPANTHELINE] | > 20 | > 20
CCCCN1C[C@H](O)[C@@H](O)[C@H](O)[C@H]1CO | > 20 | > 20
CNC(=O)c1cc(Oc2ccc(NC(=O)Nc3ccc(Cl)c(C(F)(F)F)c3)cc2)ccn1 [SORAFENIB] | > 20 | > 20
CC(=O)Oc1cccc(C)c1 | > 20 | > 20
CCCCCCCCCC(=O)N[C@@H](Cc1c[nH]c2ccccc12)C(=O)N[C@H](CC(N)=O)C(=O)N[C@@H](CC(=O)O)C(=O)N[C@@H]1C(=O)NCC(=O)N[C@@H](CCCN)C(=O)N[C@@H](CC(=O)O)C(=O)N[C@H](C)C(=O)N[C@@H](CC(=O)O)C(=O)NCC(=O)N[C@H](CO)C(=O)N[C@@H]([C@H](C)CC(=O)O)C(=O)N[C@@H](CC(=O)c2ccccc2N)C(=O)O[C@@H]1C | > 20 | > 20
CC1NCCc2cc(O)c(O)cc21 (stereo unspecified) | > 20 | > 20
O=C1Nc2ccccc2C1(c1ccc(O)cc1)c1ccc(O)cc1 [OXYPHENISATINE] | > 20 | > 20
NC(=O)OCCCc1ccccc1 [PHENPROBAMATE] | > 20 | > 20
C=CCC1(C(C)CCC)C(=O)NC(=S)NC1=O (stereo unspecified) [THIAMYLAL] | > 20 | > 20
O=C1c2ccccc2C(=O)C1c1ccc(Br)cc1 [BROMINDIONE] | > 20 | > 20

SMILES | IC50 [µM] | IC50 (read-out: pIC50 (converted)) [µM]
COC(=O)/C=C/C(=O)OCCN1C(=O)CCC1=O [DIROXIMEL FUMARATE] | > 20 | > 20
O=C(O)C[C@H](NC(=O)[C@@H]1CCCN(C(=O)CCC2CCNCC2)C1)c1cccnc1 [ELAROFIBAN] | > 20 | > 20
CC(CCc1ccccc1)NCC(O)c1ccc(O)c(C(N)=O)c1 (stereo unspecified) [LABETALOL] | > 20 | > 20
Fc1ccc(-c2ccc3c(c2)[nH]c2ccncc23)cn1 [FLORTAUCIPIR] | > 20 | > 20
Oc1c(Br)cc(Br)c2cccnc12 [BROXYQUINOLINE] | > 20 | > 20
CN(C)C1C(O)=C(C(N)=O)C(=O)C2(O)C(O)=C3C(=O)c4c(O)ccc(Cl)c4C(C)(O)C3CC12 (stereo unspecified) | > 20 | > 20
Nc1ccc(C(=O)N2CC3CC(CN(Cc4ccccc4)C3)C2)cc1 [AMBASILIDE] | > 20 | > 20
COc1cc([C@@H]2c3cc4c(cc3[C@H](O)[C@H]3COC(=O)[C@H]23)OCO4)cc(OC)c1OC [PODOFILOX] | > 20 | > 20
c1cncc([C@@H]2CCCCN2)c1 [ANABASINE] | > 20 | > 20
CN(C)CCO [DIMETHYLAMINOETHANOL] | > 20 | > 20
COc1ccc(-c2nnc(C)nc2-c2ccc(OC)cc2)cc1 [ANITRAZAFEN] | > 20 | > 20
CCCCN/C(=N\CC)NC(=N)N [ETOFORMIN] | > 20 | > 20
CN1Cc2cc(C3=NNC(=O)CC3)ccc2NC1=O [PRINOXODAN] | > 20 | > 20
O=C(CCCCCCNC(=O)c1cnc(N(c2ccccc2)c2ccccc2)nc1)NO [RICOLINOSTAT] | > 20 | > 20
Cc1ncccc1NC(=O)c1ccc2c(c1)CC[C@@H]1C[C@@](OP(=O)(O)O)(C(F)(F)F)CC[C@@]21Cc1ccccc1 [FOSDAGROCORAT] | > 20 | > 20
CC(C)Oc1ccccc1N1CCN(Cc2cccc(C(=O)N3CCCCC3)c2)CC1 [MAZAPERTINE] | > 20 | > 20
O=C1N(c2ccccc2)c2ccccc2C1(Cc1ccncc1)Cc1ccncc1 [LINOPIRDINE] | > 20 | > 20
C[C@H](O)C(=O)C1=Nc2c(nc(N)[nH]c2=O)NC1 [SEPIAPTERIN] | > 20 | > 20
Clc1ccc(CCC(Cn2ccnc2)Sc2c(Cl)cccc2Cl)cc1 (stereo unspecified) [BUTOCONAZOLE] | > 20 | > 20
NS(=O)(=O)c1cc(-c2nnn[nH]2)c(NCc2cccs2)cc1Cl [AZOSEMIDE] | > 20 | > 20
N#CC[C@@H](C1CCCC1)n1cc(-c2ncnc3[nH]ccc23)cn1 | > 20 | > 20

SMILES | IC50 [µM] | IC50 (read-out: pIC50 (converted)) [µM]
COC(=O)[C@H]1[C@@H](OC(=O)c2ccccc2)C[C@@H]2CC[C@H]1N2C [COCAINE] | > 20 | > 20
O=C1NOCC1/N=C/c1ccc(/C=N/C2CONC2=O)cc1 (stereo unspecified) [TERIZIDONE] | > 20 | > 20
CNC(=C[N+](=O)[O-])NCCSCc1ccc(CN(C)C)o1 [RANITIDINE] | > 20 | > 20
CC(C)OC(=O)[C@H](C)N[P@](=O)(CO[C@H](C)Cn1cnc2c(N)ncnc21)Oc1ccccc1 [TENOFOVIR ALAFENAMIDE] | > 20 | > 20
COc1ccc(/C=C/C(=O)Nc2ccccc2C(=O)O)cc1OC | > 20 | > 20
O=C1N[C@@H](C(=O)O)CS1 | > 20 | > 20
CN1[C@@H]2CC[C@H]1C[C@@H](OC(=O)c1cc(Cl)cc(Cl)c1)C2 [BEMESETRON] | > 20 | > 20
CN(C)CCOc1ccccc1Cc1ccccc1 [PHENYLTOLOXAMINE] | > 20 | > 20
CC(=O)Nc1cccc(O)c1 [METACETAMOL] | > 20 | > 20
COP(=O)(OC)OC=C(Cl)Cl [DICHLORVOS] | > 20 | > 20
CCC(C)C(=O)OC1CC2(C)C(c3ccoc3)OC(=O)CC23OC2(C)OC34C(OC(=O)C(C)C)C3(O)C(OC(=O)C5(C)OC5C)C5(C)CC3(O)C(C)(C5CC(=O)OC)C14O2 (stereo unspecified) | > 20 | > 20
Cc1[nH]nc(C(F)(F)F)c1Cc1sc2c(c1C(=O)N1C[C@](C)(O)CO1)c(=O)n(C)c(=O)n2C(C)C [AZD3965] | > 20 | > 20
Cc1nc2sccn2c(=O)c1CCN1CCC(=C(c2ccc(F)cc2)c2ccc(F)cc2)CC1 [RITANSERIN] | > 20 | > 20
CCCCOc1ccc(OCCCN2CCOCC2)cc1 [PRAMOXINE] | > 20 | > 20
O=C(CCCl)NCc1ccccc1 [BECLAMIDE] | > 20 | > 20
COC(=O)[C@H](Cc1ccccc1)NC(=O)[C@@H](N)CC(=O)O | > 20 | > 20
C[C@H]1N=C(N)O[C@@H]1c1ccccc1 | > 20 | > 20
CN(C)CCCN1c2ccccc2Sc2ccc(C(F)(F)F)cc21 [TRIFLUPROMAZINE] | > 20 | > 20
CC(=O)NC(CCC(=O)O)C(=O)O (stereo unspecified) [ACEGLUMATE] | > 20 | > 20
Nc1ncnc2c1ncn2[C@@H]1O[C@H](CO)C[C@H]1O [CORDYCEPIN] | > 20 | > 20
O=C(O)C(O)C(O)C(=O)O (stereo unspecified) [TARTARIC ACID] | > 20 | > 20
